For this experiment, the system named is Z. elegans cells. The experiment can be described thus: Full factorial hormone concentration experiment in liquid culture (live fraction, lignification, enlargement, elongation metrics). The class given is cell-based, Zinnia elegans. Particulars: for cumulative levels of lignification / live fraction at day 12: NAA at 0.5 mg ml^-1 together with BAP at 1 mg ml^-1, compared across 16 hormone combinations. How it is done:
In an embodiment, Z. elegans cells may be isolated by the maceration of young Zinnia leaves (e.g., leaves 114). Leaves collected from approximately 14 day-old Zinnia plants may be rinsed under running tap water for 5 min. Leaves may be sterilized in a solution of 5 ml commercial bleach (Clorox), 95 ml of deionized water, and […] of Tween 20 (Sigma Aldrich) for 5 min. Subsequently, leaves may be rinsed thoroughly with sterile distilled water, sliced into strips, and ground between the surfaces of a small sieve and a spoon (e.g., a stainless steel spoon). The leaf matter may be intermittently rinsed with ZE-M media and the rinsate may be collected in a bowl positioned beneath the supporting sieve. After completion of grinding, the rinsate may be collected and filtered through a […] cell strainer (e.g., manufactured by Fisher Scientific) to remove large debris. This strainer is just but an example and should not be considered limiting. The filtered solution may be centrifuged at 100 g for 8 min and resulting supernatant removed if more concentrated cell solutions are desired. Liquid cultures may be maintained at concentrations between 250,000 and 500,000 cells ml^−1 at 3 ml per well in a 6-well plate wrapped in parafilm. Cultures may be maintained at 22° C. in the dark on an orbital shaker operating at 80 rpm.
Cells may be cultured in this manner for 48 hours in the low-hormone media before transference to specialized experimental media. An incubation period may improve differentiation rates when cells may be later exposed to elevated levels of auxin and cytokinin. Auxins may be plant hormones produced in the stem tip that promote cell elongation. Cytokinins may be a class of plant hormones that promote cell division, or cytokinesis. For dispersed gel cultures, cells may be extracted and maintained in low-hormone, liquid medium for a 48 hour acclimation period, as previously described, prior to transference to a gel medium 108 solidified by the addition of Gelzan C M (e.g., manufactured by Sigma Aldrich) at a final concentration of 3 g L^−1. Cultures may be sealed off with parafilm and maintained at 22° C. in the dark.
For liquid cultures, well-mixed […] aliquots of cell suspension may be transferred to 48 well plates for imaging. A […] volume of a fluorescein diacetate (FDA) stock solution (prepared at 2 mg ml^−1 acetone) may be added to the cell suspension and incubated in the dark for 20 min. After the incubation period, […] of calcofluor white (CW) may be added and the solution rested for an additional 5 min prior to imaging. A Zeiss LSM780 confocal microscope, for example, may be set to excitation/emission wavelengths of […]/440 nm (DAPI filter) for CW and 490 nm/526 nm for FDA for imaging. Gel cultures may be stained through a similar dual-step process after wetting the gel surface with a small amount of liquid medium. Relative staining volumes may be the same, but increased incubation times may be involved (e.g., incubation times were approximately 45 min for FDA incubation, 45 min for CW incubation). Image analysis may be performed using Image-i. The thresholding tool may be used to select the relevant cell areas. To ensure robustness of the analyzed data ranges, the images corresponding to the highest and lowest values for a single sample may be analyzed a total of 3 times, with the repeated results averaged to yield a final value for the given image. […]

Turning to `c1ccc(CNc2ncnc3nc[nH]c23)cc1` [BAP, 6-benzylaminopurine], the “cumulative levels of lignification” value is listed as “highest” and the “live fraction at day 12” value is on record as “lowest”. Moreover, the elongation metric result (BAP elevated, across most NAA concentrations) is “reduced”.
Consider `O=C(O)Cc1cccc2ccccc12` [NAA, a-naphthaleneacetic acid], for which the “cumulative levels of lignification” value is “highest” and the “live fraction at day 12” value was “lowest”.
